Assay results taken from patent publication US8552069B2, “Method for treatment of obesity, dyslipidemia, fatty liver or insulin resistance syndrome comprising camphene as active ingredient” (Industry-Academic Cooperation Foundation, Yonsei University, priority 2009, dated 2013).
Marks after values point to notes of the source that are not given here.

What was measured:
3T3-L1 cells = experiment: Suppression of differentiation of 3T3-L1 preadipocytes into adipocytes (Oil Red O staining); type: cell-based, mouse; conditions: camphene 0.1, 1, 10, 50 and 100 μM, 14 days
Procedure: Mouse 3T3-L1 cells were used to investigate the effect of camphene on differentiation and growth of adipocytes. The preadipocytes, 3T3-L1 cells, were seeded on a 12-well plate and cultured to confluency using Dulbecco's modified Eagle's medium (DMEM) containing 1% penicillin-streptomycin, 1% nonessential amino acid and 10% fatal bovine serum (FBS), in a 5% CO2 incubator at 37° C. The 3T3-L1 cells grown to confluency were cultured for 2 days in a medium containing MDI (0.5 mM isobutylmethylxanthine, 1 μM dexamethasone and 1 μg/mL insulin) to differentiate them into adipocytes. Then, the cells were further cultivated in DMEM containing 1 μg/mL insulin to differentiate them into mature adipocytes. The cells were further cultured for 10 more days while replacing DMEM every other day to obtain fully differentiated adipocytes. From the first day when MDI was added to the 3T3-L1 cells, camphene was treated at concentrations of 0.1, 1, 10, 50 and 100 μM with 2-day intervals. (±)-Camphene purchased from Sigma-Aldrich was used after being dissolved in DMSO. Only DMSO was added to the negative control group. […] In order to measure the level of triglyceride contained in the differentiated 3T3-L1 cells, the stained lipid droplets were dissolved in 1 mL of isobutanol and OD value was measured at 600 nm.

C57BL/6J mice [1] = experiment: Body weight and visceral fat weight of mice fed high-fat diet containing camphene; type: in vivo, mouse; conditions: 0.2% camphene in high-fat diet, 10 weeks
Procedure: (§1) The obesity-inducing diet used in this example was high-fat diet (HFD: 40% fat calorie, 17 g lard+3% corn oil/100 g diet). Camphene-containing diet had the same composition as HFD, except that camphene was included at 0.2%. Normal diet (ND) was prepared with the composition of AIN-76 rodent diet (American Institute of Nutrition, Report of the American Institute of Nutrition ad hoc committee on standards for nutritional studies. J. Nutr. 107: 1340-1348, 1977) (see Table 1). (±)-Camphene was purchased from Sigma-Aldrich. [table] 5-week-old male C57BL/6J mice (Orient, Korea) were accustomed to the laboratory environment for 1 week while feeding solid feed. Then, they were randomly divided into high-fat diet control group and test group and bred for a total of 10 weeks. The diet was given between 10 and 11 a.m. every day together with water. Diet intake was measured every day and body weight was measured once in 3 days. In order to avoid transient body weight increase after feed intake, body weight was measured 2 hours after removing the feed. Feeding efficiency was calculated by dividing accumulated body weight gain during the test period, i.e. from the test diet was given first until the day when the mouse was sacrificed, by total diet intake. After fasting the test animal for at least 12 hours and anesthetizing with diethyl ether, blood, liver and visceral fat (epididymal fat, perirenal fat, mesenteric fat and retroperitoneal fat) were taken and weighed after washing with 0.1 M PBS (pH 7.4). Blood taken from the abdominal aorta was centrifuged at 1000×g for 15 minutes to separate the serum.

C57BL/6J mice [2] = experiment: Obesity-related biochemical indices in blood (serum) of high-fat diet mice; type: in vivo, mouse; conditions: 10 weeks
Procedure: as §1, with “Sigma-Aldrich.” for “Sigma-Aldrich. [table]”, “serum. Total cholesterol, triglyceride and glucose levels in the serum were measured twice for each using a commercially available kit (Bio Clinical system), and insulin level was measured by ELISA using a mouse insulin kit (Shibayaki, Japan). Lipids were extracted from the liver tissue according to Folch et al.'s method. After adding 1 mL of distilled water to 0.25 g of liver tissue, the liver tissue was homogenized using a Polytron homogenizer (IKA-Werke GmbH & Co., Ultra-Turrax, Staufen, Germany). After adding 5 mL of chloroform:methanol solution (2:1, v/v) to the homogenate and mixing well, the mixture was centrifuged at 1000×g for 10 minutes. After adding 2 mL of chloroform:methanol solution (2:1, v/v) again to the supernatant, the same procedure was repeated to completely separate the lipid components of the liver. After adding 3 mL of chloroform:methanol:0.05% CaCl2 (3:48:47, v/v/v) solution to the remaining pellets and mixing well for 1 minute, followed by centrifugation at 1000×g for 10 minutes, the resulting pellets were completely dried with nitrogen gas. The dried lipids were dissolved in 1 mL of methanol and then analyzed. The same kit (Bio Clinical system) as the one used for the serum analysis was used to measure the triglyceride level of the liver tissue.” for “serum.”

C57BL/6J mice [3] = experiment: Obesity-related biochemical indices in liver tissue of high-fat diet mice; type: in vivo, mouse; conditions: 10 weeks
Procedure: as §1, with “Sigma-Aldrich.” for “Sigma-Aldrich. [table]”, “serum. Total cholesterol, triglyceride and glucose levels in the serum were measured twice for each using a commercially available kit (Bio Clinical system), and insulin level was measured by ELISA using a mouse insulin kit (Shibayaki, Japan). Lipids were extracted from the liver tissue according to Folch et al.'s method. After adding 1 mL of distilled water to 0.25 g of liver tissue, the liver tissue was homogenized using a Polytron homogenizer (IKA-Werke GmbH & Co., Ultra-Turrax, Staufen, Germany). After adding 5 mL of chloroform:methanol solution (2:1, v/v) to the homogenate and mixing well, the mixture was centrifuged at 1000×g for 10 minutes. After adding 2 mL of chloroform:methanol solution (2:1, v/v) again to the supernatant, the same procedure was repeated to completely separate the lipid components of the liver. After adding 3 mL of chloroform:methanol:0.05% CaCl2 (3:48:47, v/v/v) solution to the remaining pellets and mixing well for 1 minute, followed by centrifugation at 1000×g for 10 minutes, the resulting pellets were completely dried with nitrogen gas. The dried lipids were dissolved in 1 mL of methanol and then analyzed. The same kit (Bio Clinical system) as the one used for the serum analysis was used to measure the triglyceride level of the liver tissue.” for “serum.”

C/EBPα = experiment: RT-PCR mRNA expression in epididymal (visceral) fat tissue: C/EBPα; type: in vivo, mouse; conditions: as compared to the high-fat diet group, FIGS. 5a and 5b
Procedure: (§2) After adding 1 mL of TRIzol solution per 0.1 g of epididymal fat tissue, centrifugation was performed at 4° C. and 12,000×g for 10 minutes. The supernatant was transferred to a fresh tube and vortexed after adding 200 μL of chloroform. After repeating this procedure twice, the supernatant was transferred to a fresh tube and isopropanol was added to the supernatant at a ratio of 1:1. After shaking strongly for 10 times and keeping at room temperature for 10 minutes, centrifugation was performed at 4° C. and 12,000×g for 10 minutes. After removing the supernatant and adding 1 mL of 70% ethanol to the remaining pellets, centrifugation was performed at 4° C. and 7,500×g for 5 minutes. After removing ethanol, the RNA pellets held in the tube were dried at room temperature for 5 minutes and dissolved using nuclease-free water. The concentration of the extracted RNA was measured at 260 nm and 280 nm using a UV/VIS spectrophotometer (Beckman Coulter, DU730), and the integrity of RNA was analyzed by agarose gel electrophoresis.
(§3) cDNA was synthesized by performing reverse transcription for the RNA sample extracted from the epididymal fat tissue using oligo-dT primer and SuperScript reverse transcriptase (GIBCO BRL, Gaithersburg, Md., USA). […]

PPARγ2 = experiment: RT-PCR mRNA expression in epididymal (visceral) fat tissue: PPARγ2; type: in vivo, mouse; conditions: as compared to the high-fat diet group, FIGS. 5a and 5b
Procedure: as §2, §3

aP2 = experiment: RT-PCR mRNA expression in epididymal (visceral) fat tissue: aP2; type: in vivo, mouse; conditions: as compared to the high-fat diet group, FIGS. 5a and 5b
Procedure: as §2, §3

TNFα = experiment: RT-PCR mRNA expression in visceral fat tissue: TNFα; type: in vivo, mouse; conditions: versus HFD group, FIGS. 6a and 6b
Procedure: as §2, §3

IL-6 = experiment: RT-PCR mRNA expression in visceral fat tissue: IL-6; type: in vivo, mouse; conditions: versus HFD group, FIGS. 6a and 6b
Procedure: as §2, §3

UCP1 = experiment: RT-PCR mRNA expression in visceral fat tissue: UCP1; type: in vivo, mouse; conditions: versus HFD group, FIG. 7
Procedure: as §2, §3

UCP3 = experiment: RT-PCR mRNA expression in visceral fat tissue: UCP3; type: in vivo, mouse; conditions: versus HFD group, FIG. 7
Procedure: as §2, §3

NF-κB = conditions: mouse macrophage cells (RAW 264.7); cited from earlier work
[4] = test system: Gram-positive bacteria, Gram-negative bacteria and fungi; conditions: cited from earlier work
[5] = blood, camphene-administered group
[6] = liver tissue, camphene-administered group

C=C1C2CCC(C2)C1(C)C (racemic) [camphene]
differentiation of the preadipocytes (Oil Red O staining) (3T3-L1 cells; FIG. 1a): reduced the differentiation of the preadipocytes in a concentration-dependent manner | OD value (600 nm) of fats stained with Oil Red O (3T3-L1 cells; FIG. 1b): decreased in a concentration-dependent manner | lower accumulated body weight gain as compared to HFD control group (C57BL/6J mice [1]): 58% | lower final body weight as compared to HFD control group (C57BL/6J mice [1]): 33% | lower epididymal fat weight per body weight as compared to HFD (C57BL/6J mice [1]; P<0.001): 46% | lower mesenteric fat weight per body weight as compared to HFD (C57BL/6J mice [1]; P<0.001): 61% | lower perirenal fat weight per body weight as compared to HFD (C57BL/6J mice [1]; P<0.001): 76% | lower retroperitoneal fat weight per body weight as compared to HFD (C57BL/6J mice [1]; P<0.001): 48% | lower total visceral fat weight per body weight as compared to HFD (C57BL/6J mice [1]; P<0.001): 52% | lower arteriosclerotic index as compared to HFD (C57BL/6J mice [2]; 0.2% camphene in high-fat diet): 59% | lower fasting blood sugar level as compared to HFD (C57BL/6J mice [2]; 0.2% camphene in high-fat diet): 10% | lower insulin resistance (IRI) as compared to HFD (C57BL/6J mice [2]; 0.2% camphene in high-fat diet): 40% | lower serum LDL+VLDL cholesterol level as compared to HFD (C57BL/6J mice [2]; 0.2% camphene in high-fat diet): 79% | lower serum free fatty acid level as compared to HFD (C57BL/6J mice [2]; 0.2% camphene in high-fat diet): 86% | lower serum insulin level as compared to HFD (C57BL/6J mice [2]; 0.2% camphene in high-fat diet): 32% | lower serum total cholesterol level as compared to HFD (C57BL/6J mice [2]; 0.2% camphene in high-fat diet): 60% | lower serum triglyceride level as compared to HFD (C57BL/6J mice [2]; 0.2% camphene in high-fat diet): 69% | IRI (insulin resistance index) (C57BL/6J mice [2]; 10^−3 pmol insulin × mmol glucose × L^−2, camphene-administered group): 1.11 ± 0.21^b | Arteriosclerotic index (C57BL/6J mice [2]; (total cholesterol − HDL cholesterol)/HDL cholesterol, camphene-administered group): 0.42 ± 0.03^b | Free fatty acid (C57BL/6J mice [2]; [5]): 197 ± 6.7^c μEq/L | HDL cholesterol (C57BL/6J mice [2]; [5]): 1.02 ± 0.04^c mmol/L | Insulin (C57BL/6J mice [2]; [5]): 0.85 ± 0.23^b ng/mL | LDL + VLDL cholesterol (C57BL/6J mice [2]; [5]): 0.44 ± 0.05^b mmol/L | Total cholesterol (C57BL/6J mice [2]; [5]): 1.55 ± 0.11^b mmol/L | Triglyceride (C57BL/6J mice [2]; [5]): 0.44 ± 0.05^b mmol/L | Glucose (C57BL/6J mice [2]; blood, fasting, camphene-administered group): 7.6 ± 0.51^ab mmol/L | lower cholesterol level in the liver tissue as compared to HFD (C57BL/6J mice [3]; 0.2% camphene in high-fat diet): 86% | lower free fatty acid level in the liver tissue as compared to HFD (C57BL/6J mice [3]; 0.2% camphene in high-fat diet): 73% | lower liver weight per body weight as compared to HFD (C57BL/6J mice [3]; 0.2% camphene in high-fat diet): 22% | lower triglyceride level in the liver tissue as compared to HFD (C57BL/6J mice [3]; 0.2% camphene in high-fat diet): 58% | Liver weight (C57BL/6J mice [3]; camphene-administered group): 4.3 ± 0.32^b g/100 g body wt | Cholesterol (C57BL/6J mice [3]; [6]): 10.3 ± 2.6^c μmol/g | Free fatty acid (C57BL/6J mice [3]; [6]): 6.5 ± 0.91^b μEq/g | Triglyceride (C57BL/6J mice [3]; [6]): 14.7 ± 2.3^c μmol/g | C/EBPα mRNA expression in visceral fat tissue (C/EBPα): significantly decreased expression | PPARγ2 mRNA expression in visceral fat tissue (PPARγ2): significantly decreased expression | aP2 mRNA expression in visceral fat tissue (aP2): significantly decreased expression | TNFα gene expression in visceral fat tissue (TNFα): decreased expression of TNFα and IL-6 genes back to the level of the ND group | IL-6 gene expression in visceral fat tissue (IL-6): decreased expression of TNFα and IL-6 genes back to the level of the ND group | UCP1 gene expression in visceral fat tissue (UCP1): increased expression | UCP3 gene expression in visceral fat tissue (UCP3): increased expression | activity of the inflammation-inducing factor NF-κB (NF-κB): suppressing the activity | growth of Gram-positive bacteria, Gram-negative bacteria and fungi [4]: inhibiting growth
